Measurements taken from patent publication US20240271096A1, “EFFICIENT DIFFERENTIATION OF SECOND HEART FIELD CARDIAC PROGENITOR CELLS AND RIGHT VENTRICLE CARDIOMYOCYTES FROM HUMAN PLURIPOTENT STEM CELLS” (Wisconsin Alumni Research Foundation, priority 2023, published 2024).

What was measured:
SMAD1/5 = test: Western blotting of SMAD1/5 phosphorylation in GiWi protocol; assay type: cell-based, human; settings: insulin added on differentiation day 0; measured on day 3
Text: Using the cell lysis solution contained in the Minute Total Protein Extraction Kit for Animal Cultured Cells/Tissues (Invent Biotechnologies, Plymouth, MN, United States) with Protease Inhibitor Cocktail Set III (×100) (Fujifilm Wako Pure Chemical Corporation, Osaka, Japan) and Phosphatase Inhibitor Cocktail Solution II (×100) (Fujifilm Wako Pure Chemical Corporation), cells at day 3 of differentiation were lysed and proteins were extracted according to the manufacturer's instructions. Protein concentration was measured with a Pierce BCA Protein Assay Kit (Thermo Fisher Scientific), iMark microplate reader and Microplate Manager 6 software (Bio-Rad, Hercules, CA, USA). Fifty micrograms of protein combined with Laemmli sample buffer (Bio-Rad) were boiled at 95° C. for 5 minutes and then loaded onto 10% Mini-PROTEAN TGX Precast Gels (Bio-Rad). Proteins were transferred to nitrocellulose membranes and blocking was performed using Tris buffered saline with Tween20 with 5% nonfat dry milk for 1 hour at room temperature. […] Immunoblotted proteins were detected by ECL Prime Western blotting detection reagents and ImageQuant LAS4000 mini (GE Healthcare, Chicago, IL, USA).

[1] = test system: human induced pluripotent stem cell-derived cardiac progenitor cells; test: Quantitative PCR of heart field and cardiac markers in differentiating hiPSCs (day 0 to day 7); assay type: cell-based; settings: B-27 containing insulin day 0 to day 1; qPCR day 7; vs control cells
Protocol: For LV-cardiomyocyte differentiation, cardiac differentiation was performed according to the protocol published by (Lian et al., 2012, Proc Natl Acad Sci USA 109:[…]-57). Cells were dissociated with StemPro Accutase Cell Dissociation Reagent at 37° C. for 5 minutes. HESCs were seeded on Matrigel-coated 24-well plates (Corning) in StemFlex Medium supplemented with 10 μmol/[…] were seeded on iMatrix-511-coated 12-well plates (Corning) in StemFit A[…] supplemented with 10 μmol/[…] at seeding densities of 1×10^5 cells/cm^2 for hESCs and 1.25-2.5×10^4 cells/cm^2 for hiPSCs. Cells were cultured for 4 days until the start of differentiation (day 0). On day 0, the medium was changed to RPMI 1640 Medium (Thermo Fisher Scientific) supplemented with B-27 Supplement minus insulin (Thermo Fisher Scientific) (RPMI/B27-insulin) or B-27 Supplement with insulin (Thermo Fisher Scientific), and 12 μmol/L CHIR 99021 (SelleckChem, Houston, TX, United States), and the cells incubated in this medium for 24 h (day 1). On day 1, the medium was changed to RPMI/B27-insulin. […] PowerUpTM SYBR Green Master Mix (Thermo Fisher Scientific) and QuantStudio 1 (Thermo Fisher Scientific) were used for quantitative PCR (q-PCR), wherein q-PCR data were processed using the ΔΔCT method. […] Data were analyzed with the web-based tool of GeneGlobe Data Analysis Center (Qiagen).

insulin
phosphorylation of SMAD1/5 (SMAD1/5): suppressed | expression levels of FHF markers (TBX5 and HCN4) [1]: lower expression levels | mRNA expression levels of SHF markers (ISL1 and CXCR4) [1]: higher mRNA expression levels
